Experiments:
PBMC cytotoxicity assay = type: cell-based; conditions: human, cryopreserved PBMCs
Method: Compounds were tested in a high-throughput 384-well assay format for cytotoxicity in cryopreserved human PBMCs. Compounds were serially diluted (1:3) in 100% DMSO in 384-well plates in quadruplicate. An acoustic dispenser was used to transfer 310 nL of compound into assay plates. DMSO and 2 mM Puromycin were included as negative and positive controls respectively. Cells were diluted in media (RPMI+10% FBS+1% PSG+10 mM Hepes+1% Pyruvate+0.1% BMe) to 72K cells/mL and allowed to rest for 4 hours in an incubator at 37° C. and 5% CO2 before plating into prespotted assay plates at 70 uL/well. After 5 days, 25 μL of Cell Titer Glo was added to the assay plates. […] CC50 values were calculated in Accord (on-line tool) using a one-site dose-response model to generate sigmoidal curve fits.

[1] = NRVM neonatal rat cardiomyocyte cytotoxicity assay; type: cell-based; conditions: freshly harvested neonatal cardiomyocytes (NRVM)
Method: Compounds were tested in a high-throughput 384-well assay format for cytotoxicity against freshly harvested neonatal rat cardiomyocytes (NRVM). Cells were diluted in media (DMEM+10% FBS+1% PSG+1% NEAA) to 25,000 cells/mL, plated at 90 ul per well in 384 well cell assay plates and incubated overnight at 37° C. and 5% CO2 before compound addition. Compounds were prepared by serial dilution (1:3) in 100% DMSO in 384-well plates in quadruplicate. 400 nL/well of compound were transferred into cell assay plates via Biocel (Agilent Technologies). DMSO and 2 mM Puromycin were included as negative and positive controls respectively. After 5 days, plates are washed 1× w/ 100 ul/well PBS with Biotek plate washer, and 20 μL of Cell Titer Glo was added to each well. Plates were incubated 10 min and read on EnVision reader (Perkin Elmer). […] CC50 values were calculated in Accord (on-line tool) using a one-site dose-response model to generate sigmoidal curve fits.

[2] = Stability assay in human hepatic S9 fractions; type: in vitro ADME; conditions: 37° C., NADPH and UDPGA, read-out: Hum HepS9 t1/2
Method: For S9 stability, the compounds were incubated at 2 μM in cynomolgus monkey or human hepatic S9 fractions for up to 90 min at 37° C. in the presence of NADPH and UDPGA (Phase I and Phase II cofactor, Sigma-Aldrich). At desired time points following compound addition, samples were quenched with 9 volumes of an aqueous solution containing internal standard, 50% acetonitrile and 25% methanol. Sample plates were centrifuged at 3000 g for 30 min, and 10 μL of the resulting solution was analyzed by LC-MS/MS. Data (analyte to internal standard peak area ratio) were plotted on a semi log scale and fitted using an exponential fit. The half-life (T1/2) was determined assuming first order kinetics.

RSV A strain A2 = experiment: RSV HAE EC50, intracellular RSV RNA by real-time PCR; type: cell-based; conditions: for EC50: human respiratory syncytial virus, 72 h, RSV A2 in HAE cells, air-liquid interface, 3 days, RSV RNA
Method: HAE cells are cultured at the air-liquid interface and have an apical side that is exposed to the air and a basal side that is in contact with the medium. Prior to experimentation, HAE were removed from their agar-based shipping packaging and were acclimated to 37° C./5% CO2 overnight in 1 ml of HAE Assay medium (AIR-100-MM, Mattek Corp). HAE were prepared for infection by washing the apical surface twice with 400 μL of PBS (either utilizing direct pipetting methods or by running each transwell through a trough containing PBS) to remove the mucus layer. Apical chambers were drained of PBS and tapped gently onto absorbent material to remove as much PBS as possible. After washing, the cells were transferred to fresh HAE maintenance media containing 4-fold serially diluted compound, delivered to the basal side of the cell monolayer, and apically infected with 100 μL of a 1:600 dilution of RSV A strain A2 1000× stock (ABI, Columbia, MD, Cat #10-124-000) in HAE assay medium for 3 hours at 37° C. in 5% CO2. The virus inoculum was removed and the apical surface of the cells was washed 3 times with PBS using either method previously described. The cells were then cultured in the presence of compound for 3 days at 37° C. Following the incubation, total RNA was extracted from the HAE cells using a MagMAX-96 Viral RNA isolation kit (Applied Biosystems, Foster City, CA, Cat #AM1836) and intracellular RSV RNA was quantified by real-time PCR. Approximately 25 ng of purified RNA was added to a PCR reaction mixture that contained 0.9 μM RSV N Forward and RSV N Reverse primers, 0.2 μM RSV N Probe and 1× Taqman RNA-to-Ct 1-Step Kit (Applied Biosystems, Foster City, CA, Cat #4392938). RNA levels were normalized using a Taqman GAPDH control primer set (Applied Biosystems, Foster City, CA, Cat #402869). Real-Time PCR Primers and Probe Used in the RSV A2 HAE Antiviral Assay: RSV N Forward […] (SEQ ID NO: 2), RSV N Reverse […] (SEQ ID NO: 3), RSV N Probe FAM-[…]-BHQ (SEQ ID NO: 4).

DENV2 replicon = experiment: DENV-2 Huh-7 Rep EC50; type: cell-based, dengue virus; conditions: for EC50: Dengue virus, Huh-7 cells containing DENV2 replicon, 48 hours, read-out: DENV Huh7 REP EC50
Method: In 384 well plates (Greiner, Cat #781091), compounds were acoustically transferred at 200 nl per well in a 8 compound (4 replicates) or 40 compound dose response format (3 replicates). For all plates tested, Balapiravir, GS-5734 and NITD008 were included as positive inhibition controls alongside 0% inhibition, DMSO-only negative control wells. Following compound addition, Huh-7 cells containing the DENV2 replicon construct were harvested following standard cell culture procedures and were adjusted to a concentration of 1.25E5 cells/mL in cell culture media composed of cDMEM without genticin. 40 μL of the cell stock was then added to each well for a final cell density of 5,000 cells/well. Cell and compound mixtures were incubated at 37° C./5% CO2 for 48 hours. Prior to harvesting cells, EnduRen Live Cell Substrate (Promega, Cat #E6481) was prepared by suspending 3.4 mg into 100 uL of DMSO to generate a 60 mM stock solution. The stock solution was then diluted 1:200 in pre-warmed cDMEM and 10 uL of this diluted solution was added to each well of the 384 well plates. Plates were then centrifuged at 500 rpm briefly and were placed on a plate shaker for 2 min. Following mixing, plates were incubated at […] for 1.5 hours prior to measuring luminescence on an Envision luminometer.

Compound | CC50 at 5 days (PBMC cytotoxicity assay) | CC50 at 5 days [1] | half-life at 2 μM [2] | times more potent relative to compound 2, RSV HAE (RSV A strain A2; EC50 ratio vs compound 2) | EC50 (RSV A strain A2) | EC50 (DENV2 replicon) | times more potent than compound 1, DENV huh7 Rep (DENV2 replicon; EC50 ratio vs compound 1) | times more potent compared to compound 2, DENV huh7 Rep (DENV2 replicon; EC50 ratio vs compound 2)
C[C@H](N[P@](=O)(OC[C@@]1(C#N)O[C@@H](c2ccc3c(N)ncnn23)[C@H](O)[C@@H]1O)Oc1ccccc1)C(=O)OC1CCCCC1 [Formula I, cyclohexyl ((S)-(((2R,3S,4R,5S)-5-(4-aminopyrrolo[2,1-f][1,2,4]triazin-7-yl)-2-cyano-3,4-dihydroxytetrahydrofuran-2-yl)methoxy)(phenoxy)phosphoryl)-L-alaninate] | > 31.6 µM | 27.7 µM | 31 min | about 8.1 times | 0.023 µM | 2.94 µM | about 25.0 times | about 1.9 times
CCC(CC)COC(=O)[C@H](C)N[P@](=O)(OC[C@@]1(C#N)O[C@@H](c2ccc3c(N)ncnn23)[C@H](O)[C@@H]1O)Oc1ccccc1 [Compound 6, 2-ethylbutyl ((S)-(((2R,3S,4R,5S)-5-(4-aminopyrrolo[2,1-f][1,2,4]triazin-7-yl)-2-cyano-3,4-dihydroxytetrahydrofuran-2-yl)methoxy)(phenoxy)phosphoryl)alaninate] | 4.79 µM | 8.09 µM | 7 min |  | 0.11 µM |  |  | 
CCOC(=O)[C@H](C)NP(=O)(OC[C@@]1(C#N)O[C@@H](c2ccc3c(N)ncnn23)[C@H](O)[C@@H]1O)Oc1ccccc1 (stereo partly drawn) [Compound 1, reference compound] | 18.2 µM | > 44.4 µM | 12 min |  |  | 73.4 µM |  | 
CCC(CC)COC(=O)[C@H](C)NP(=O)(OC[C@@]1(C#N)O[C@@H](c2ccc3c(N)ncnn23)[C@H](O)[C@@H]1O)Oc1ccccc1 (stereo partly drawn) [Compound 2, reference compound] | 4.65 µM | > 44.4 µM | 12 min |  | 0.186 µM | 5.54 µM |  | 

Source: patent US20250034186A1, “ANTIVIRAL COMPOUNDS” (priority 2020, published 2025)
